This is an account of results in patent US6521654B2, “Substituted imidazolidine derivatives, their preparation, their use and pharmaceutical preparations including them” (Aventis Pharma Deutschland GmbH, priority 1997, dated 2003).

pIC50: −log10 of the molar value.

A word on the pIC50: it is the negative decadic logarithm of the IC50, by convention in mol/L. Lower therefore signals a large IC50.

T1 sequence (P13612 34-1032): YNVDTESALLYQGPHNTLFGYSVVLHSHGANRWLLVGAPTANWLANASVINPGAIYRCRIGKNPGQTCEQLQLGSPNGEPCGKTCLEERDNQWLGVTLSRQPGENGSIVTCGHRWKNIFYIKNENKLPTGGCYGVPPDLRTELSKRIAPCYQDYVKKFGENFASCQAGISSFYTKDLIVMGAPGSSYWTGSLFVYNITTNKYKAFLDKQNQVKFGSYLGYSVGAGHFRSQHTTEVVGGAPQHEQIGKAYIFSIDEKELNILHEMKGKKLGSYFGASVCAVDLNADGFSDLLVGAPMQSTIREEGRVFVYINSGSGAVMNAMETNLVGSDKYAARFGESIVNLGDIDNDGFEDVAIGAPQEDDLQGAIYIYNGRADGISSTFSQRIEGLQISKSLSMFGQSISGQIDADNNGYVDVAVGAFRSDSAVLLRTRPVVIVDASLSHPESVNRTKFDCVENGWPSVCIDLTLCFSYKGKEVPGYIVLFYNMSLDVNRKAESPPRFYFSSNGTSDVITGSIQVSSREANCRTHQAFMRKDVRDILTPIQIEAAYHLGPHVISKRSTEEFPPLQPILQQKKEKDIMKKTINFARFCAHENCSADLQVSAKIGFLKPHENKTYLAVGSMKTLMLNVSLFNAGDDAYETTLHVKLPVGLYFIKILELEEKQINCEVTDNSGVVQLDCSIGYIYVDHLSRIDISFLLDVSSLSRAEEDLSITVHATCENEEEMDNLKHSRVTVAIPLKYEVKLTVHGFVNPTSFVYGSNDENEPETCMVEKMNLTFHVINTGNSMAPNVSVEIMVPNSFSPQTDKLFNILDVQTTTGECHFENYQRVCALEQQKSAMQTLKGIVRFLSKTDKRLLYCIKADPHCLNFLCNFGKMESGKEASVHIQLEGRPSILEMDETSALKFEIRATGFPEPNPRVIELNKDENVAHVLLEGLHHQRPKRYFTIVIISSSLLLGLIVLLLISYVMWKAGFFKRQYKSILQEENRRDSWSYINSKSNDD
T1 sequence (P05556 21-798): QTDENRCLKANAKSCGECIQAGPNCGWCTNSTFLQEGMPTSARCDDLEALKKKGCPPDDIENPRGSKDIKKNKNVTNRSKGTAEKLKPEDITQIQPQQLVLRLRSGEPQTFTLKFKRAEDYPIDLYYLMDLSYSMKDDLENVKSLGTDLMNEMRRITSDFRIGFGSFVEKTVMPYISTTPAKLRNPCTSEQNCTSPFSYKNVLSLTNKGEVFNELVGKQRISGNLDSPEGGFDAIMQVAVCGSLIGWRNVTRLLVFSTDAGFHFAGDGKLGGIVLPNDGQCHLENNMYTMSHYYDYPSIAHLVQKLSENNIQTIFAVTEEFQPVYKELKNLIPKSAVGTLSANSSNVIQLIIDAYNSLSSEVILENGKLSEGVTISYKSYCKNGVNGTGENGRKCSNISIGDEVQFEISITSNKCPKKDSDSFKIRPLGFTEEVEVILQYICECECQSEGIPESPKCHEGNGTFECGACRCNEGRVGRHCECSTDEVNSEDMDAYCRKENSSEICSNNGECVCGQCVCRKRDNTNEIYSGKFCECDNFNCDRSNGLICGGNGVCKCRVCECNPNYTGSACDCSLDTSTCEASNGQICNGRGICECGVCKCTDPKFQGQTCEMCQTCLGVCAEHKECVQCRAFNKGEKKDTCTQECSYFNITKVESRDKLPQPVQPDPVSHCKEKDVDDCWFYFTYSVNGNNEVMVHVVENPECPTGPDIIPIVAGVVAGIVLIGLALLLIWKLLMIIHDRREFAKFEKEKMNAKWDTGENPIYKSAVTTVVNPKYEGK

The test has as its target T1, interaction between VCAM-1 and VLA-4 (Homo sapiens, UniProt P05556+P13612).
T1 construct: supplied in their natural form as surface molecules on human U937 cells; host or cells: U937 cells carry endogenous VLA-4; The partner hVCAM-1(1-3)-IgG was made in house in transfected COS cells (ATCC CRL1651) and used as culture supernatant
The test is described as follows: U937/VCAM-1 cell adhesion test (adhesion of U937 cells to hVCAM-1(1-3)-IgG). Conditions: concentration leading to 50% inhibition of adhesion of human U937 cells (ATCC CRL 1593) to hVCAM-1(1-3)-IgG. The class given is cell-based. The source says:
The test method used for the activity of the compounds of the formula I on the interaction between VCAM-1 and VLA-4 is the assay described below which is specific for this interaction. The cellular binding components, i.e., the VLA-4 integrins, are supplied in their natural form as surface molecules on human U937 cells (ATCC CRL 1593). which belong to the leucocytes group. The specific binding components used are genetically engineered recombinant soluble fusion proteins, consisting of the extracytoplasmatic domain of human VCAM-1 and the constant region of a human immunoglobulin of the subclass IgG1.
Assay for the Measurement of the Adhesion of U937 Cells (ATCC CRL 1593) to hVCAM-1(1-3)-IgG
1. Preparation of Human VCAM-1 (1-3)-IgG and Human CD4-IgG
A genetic construct for the expression of the extracellular domain of human VCAM-1, associated with the genetic sequence of the heavy chain of human immunoglobulin IgG1 (hinge, CH2 and CH3 regions), from Dr. Brian Seed, Massachusetts General Hospital. Boston, USA was employed (cf. Damle and Aruffo, Proc. Natl. Acad. Sci. USA 1991, 88, 6403-6407). The soluble fusion protein hVCAM-1(1-3)-IgG contained the three amino-terminal extracellular immunoglobulin-like domains of human VCAM-1 (Damle and Aruffo, Proc. Natl. Acad. Sci. USA 1991, 88, 6403-6407). CD4-IgG (Zettimeissl et al., DNA and Cell Biology 1990, 9, 347) served as a fusion protein for negative controls. The recombinant proteins were expressed as soluble proteins after DEAE/dextran-mediated DNA transfection in COS cells (ATCC CRL1651) according to standard procedures (Ausubel et al., Current Protocols in Molecular Biology, John Wiley & Sons, Inc., 1994).
2. Assay for the Measurement of the Adhesion of U937 Cells to hVCAM-1 (1-3)-IgG
2.1 96-well microtiter test plates (Nunc Maxisorb) were incubated at room temperature for 1 hour with 100 μl/well of a goat-anti-human IgG antibody solution (10 μg/ml in 50 mM tris, pH 9.5). After removal of the antibody solution, washing was carried out once with PBS.
2.2 150 μl/well of a blocking buffer (1% BSA in PBS) were incubated on the plates at room temperature for 0.5 hour. After removal of the blocking buffer, washing was carried out once with PBS.
2.3 100 μl per well of a cell culture supernatant of transfected COS cells were incubated on the plates at room temperature for 1.5 hours. The COS cells were transfected with a plasmid which codes for the three N-terminal immunoglobulin-like domains of VCAM-1, coupled to the Fc part of human IgG1 (hVCAM-1 (1-3)-IgG). The content of hVCAM-1 (1-3)-IgG was about 0.5-1 μg/ml. After removal of the culture supernatant, washing was carried out once with PBS.
2.4 The plates were incubated at room temperature for 20 minutes with 100 μl/well of Fc receptor blocking buffer (1 mg/ml of γ-globulin, 100 mM NaCl, 100 μM MgCl2, 100 μM MnCl2, 100 μM CaCl2, 1 mg/ml of BSA in 50 mM HEPES, pH 7.5). After removal of the Fc receptor blocking buffer, washing was carried out once with PBS.
2.5 20 μl of binding buffer (100 mM NaCl, 100 μM MgCl2, 100 μM MnCl2, 100 μM CaCl2, 1 mg/ml of BSA in 50 mM HEPES, pH 7.5) were initially introduced, and the substances to be tested were added in 10 μl of binding buffer and incubated for 20 minutes. The controls used were antibodies against VCAM-1 (BBT, No. BBA6) and against VLA-4 (immunotech, No. 0764).
2.6 U937 cells were incubated in Fc receptor blocking buffer for 20 minutes and then added by pipette in a concentration of 1×10^6/ml and in an amount of 100 μl per well ([…]).
2.7 The plates were slowly immersed at an angle of 45° in stop buffer (100 mM NaCl, 100 μM MgCl2, 100 μM MnCl2, 100 μM CaCl2 in 25 mM tris, pH 7.5) and shaken off. The process was repeated.
2.8 50 μl/well of a dye solution (16.7 μg/ml of Hoechst Dye 33258, 4% formaldehyde, 0.5% triton X-100 in PBS) were then incubated on the plates for 15 minutes. […]
`COC(=O)c1ccccc1NC(=O)Nc1ccc(CN2C(=O)N(CC(=O)N[C@H](C)CC(=O)O)C(=O)C2(C)C)cc1` [Example 38] gave a pIC50 of 6.40.
The compound `CC(C)C[C@@H](C(=O)N[C@@H](CC(=O)O)c1ccccc1)N1C(=O)N(Cc2ccc(NC(=O)Nc3ccccc3)cc2)C(C)(C)C1=O` [Example 19] gave a pIC50 of 8.52.
Under `CC(C)C[C@@H](C(=O)N[C@@H](CC(=O)O)C(=O)NC1C2CC3CC(C2)CC1C3)N1C(=O)N(Cc2ccc(NC(=O)Nc3ccccc3)cc2)C(C)(C)C1=O` (stereo partly shown) [Example 25] stands 8.22.
`Cc1ccccc1NC(=O)Nc1ccc(CN2C(=O)N([C@@H](CC(C)C)C(=O)N[C@@H](CC(=O)O)c3ccc(-c4ccccc4)cc3)C(=O)C2(C)C)cc1` [Example 185] had a pIC50 of 7.96. This pIC50 is 0.26 log units lower than that of the compound before.
In the case of `COc1cccc(C(CC(=O)O)NC(=O)C(CC(C)C)N2C(=O)N(Cc3ccc(NC(=O)Nc4ccccc4C)cc3)C(C)(c3ccccc3)C2=O)c1OC` (stereo not shown) [Example 201] it was 7.60; in that of `Cc1ccccc1NC(=O)Nc1ccc(CN2C(=O)N(C(CC(C)C)C(=O)N[C@@H](CC(=O)O)C(=O)N[C@H](C(=O)OC(C)(C)C)c3ccccc3)C(=O)C2(C)c2ccccc2)cc1` (mixture of isomers) [Example 219], 6.76.
As to `Cc1cccc(NC(=O)Nc2ccc(CN3C(=O)N(CC(=O)NC(C)CC(=O)O)C(=O)C3(C)C)cc2)c1C` (stereo not shown) [Example 34], the pIC50 is 6.31.
Under `CC(C)CC(C(=O)N[C@@H](CC(=O)O)C(=O)N[C@H](C(=O)O)c1ccccc1)N1C(=O)N(Cc2ccc(NC(=O)Nc3ccccc3)cc2)C(C)(c2ccccc2)C1=O` (mixture of isomers) [Example 1, ((RS)-2-((RS)-4-Phenyl-3-(4-(3-phenylureido)benzyl)-4-methyl-2,5-dioxoimidazolidin-1-yl)-2-(2-methylpropyl)acetyl)-L-aspartyl-L-phenylglycine] stands 8.40.
Under `Cc1ccccc1NC(=O)Nc1ccc(CN2CC(=O)N(CC(=O)N(C)[C@@H](CC(=O)O)C(=O)NC3C4CC5CC(C4)CC3C5)C2=O)cc1` (stereo partly shown) [Example 20] stands 6.80.
In the case of `COc1ccc(C(CC(=O)O)NC(=O)C(CC(C)C)N2C(=O)N(Cc3ccc(NC(=O)Nc4ccccc4C)cc3)C(C)(c3ccccc3)C2=O)cc1` (stereo not shown) [Example 193] it was 7.82; in that of `CCCCS(=O)(=O)NC(CNC(=O)C(CC(C)C)N1C(=O)N(Cc2ccc(NC(=O)Nc3ccccc3C)cc2)C(C)(c2ccccc2)C1=O)C(=O)O` (racemic) [Example 195, (RS)-2-Butylsulfonylamino-3-((RS)-2-((RS)-4-methyl-4-phenyl-3-(4-(3-(2-methyl-phenyl)ureido)benzyl)-2,5-dioxoimidazolidin-1-yl)-2-(2-methylpropyl)acetylamino)propionic Acid], 7.64.
As to `CC(C)C[C@@H](C(=O)N[C@@H](CC(=O)O)C(=O)N[C@H](C(=O)O)c1ccccc1)N1C(=O)N(Cc2ccc(NC(=O)NCc3ccccc3)cc2)C(C)(C)C1=O` [Example 58], the pIC50 was 6.35.
With `Cc1ccccc1NC(=O)Nc1ccc(CN2C(=O)N(CC(=O)NC[C@H](NC(=O)OCc3ccccc3)C(=O)O)C(=O)C2(C)C)cc1` [Example 94], the pIC50 was 7.66.
Under `Cc1ccccc1NC(=O)Nc1ccc(CN2C(=O)N([C@@H](CC(C)C)C(=O)N[C@@H](CC(=O)O)c3c(F)c(F)c(F)c(F)c3F)C(=O)C2(C)C)cc1` [Example 187] stands 7.60; under `Cc1ccccc1NC(=O)Nc1ccc(CN2C(=O)N([C@@H](CC(C)C)C(=O)N[C@@H](CC(=O)O)c3ccccc3)C(=O)C2(C)C)cc1` [Example 17, (S)-3-((S)-2-(4,4-Dimethyl-3-(4-(3-(2-methylphenyl)ureido)benzyl)-2,5-dioxoimidazolidin-1-yl)-2-(2-methylpropyl)acetylamino)-3-phenylpropionic Acid], 8.82; under `Cc1ccccc1NC(=O)Nc1ccc(CN2C(=O)N(CC(=O)NCCC(=O)O)C(=O)C2(C)C)cc1` [Example 15, 3-(2-(4,4-Dimethyl-3-(4-(3-(2-methylphenyl)ureido)benzyl)-2,5-dioxoimidazolidin-1-yl)acetylamino)propionic Acid], 7.52.
In turn, `Cc1ccccc1NC(=O)Nc1ccc(CN2C(=O)N(CC(=O)N[C@@H](CC(=O)O)c3ccc4c(c3)OCO4)C(=O)C2(C)C)cc1` [Example 93, (S)-3-(2-(4,4-Dimethyl-3-(4-(3-(2-methylphenyl)ureido)benzyl)-2,5-dioxoimidazolidin-1-yl)acetylamino)-3-(3,4-methylenedioxyphenyl)propionic Acid] gave a pIC50 of 8.15.
`COc1ccc([C@H](CC(=O)O)NC(=O)C(CC(C)C)N2C(=O)N(Cc3ccc(NC(=O)Nc4ccccc4C)cc3)C(C)(c3ccccc3)C2=O)c(OC)c1` (mixture of isomers) [Example 189, (S)-3-((RS)-2-((RS)-4-Methyl-4-phenyl-3-(4-(3-(2-methylphenyl)ureido)benzyl)-2,5-dioxoimidazolidin-1-yl)-2-(2-methylpropyl)acetylamino)-3-(2,4-dimethoxyphenyl)propionic Acid] showed a pIC50 of 7.30.
Under `Cc1ccccc1NC(=O)Nc1ccc(CN2C(=O)N([C@@H](CC(C)C)C(=O)NCC(=O)O)C(=O)C2(C)C)cc1` [Example 10, 2-((S)-2-(4,4-Dimethyl-3-(4-(3-(2-methylphenyl)ureido)benzyl)-2,5-dioxoimidazolidin-1-yl)-2-(2-methylpropyl)acetylamino)acetic Acid] stands 6.22; under `Cc1ccccc1NC(=O)Nc1ccc(CN2CC(=O)N(CC(=O)N[C@@H](CC(=O)O)C(=O)NC3C4CC5CC(C4)CC3C5)C2=O)cc1` (stereo partly shown) [Example 21], 6.28; under `Cc1ccccc1NC(=O)Nc1ccc(CN2C(=O)N(C(CC(C)C)C(=O)NC(CC(=O)O)c3ccc(F)cc3)C(=O)C2(C)c2ccccc2)cc1` (stereo not shown) [Example 216], 7.30.
With `Cc1ccccc1NC(=O)Nc1ccc(CN2C(=O)N(CC(=O)N[C@H](C)CC(=O)O)C(=O)C2(C)C)cc1` [Example 9, (R)-3-(2-(4,4-Dimethyl-3-(4-(3-(2-methylphenyl)ureido)benzyl)-2,5-dioxoimidazolidin-1-yl)acetylamino)-3-methylpropionic Acid], the pIC50 was 7.70.
Under `CC(C)C[C@@H](C(=O)N[C@@H](CC(=O)O)C(=O)N[C@H](C(=O)O)c1ccccc1)N1C(=O)N(Cc2ccc(NC(=O)Nc3ccccc3Cl)cc2)C(C)(C)C1=O` [Example 62] stands 8.30; under `COc1ccccc1NC(=O)Nc1ccc(CN2C(=O)N([C@@H](CC(C)C)C(=O)N[C@@H](CC(=O)O)C(=O)N[C@H](C(=O)O)c3ccccc3)C(=O)C2(C)C)cc1` [Example 61], 7.61; under `Cc1ccccc1NC(=O)Nc1ccc(CN2C(=O)N(C(CC(C)C)C(=O)NC(CC(=O)O)c3ccc(C(C)(C)C)cc3)C(=O)C2(C)c2ccccc2)cc1` (stereo not shown) [Example 191], 6.91.
